Assay results published in article doi:10.1101/2024.02.16.580709v1, “Developing Hybrid Systems to Address O2 Uncoupling in Multi-Component Rieske Oxygenases” (biorxiv, 2024).

Columns and labels:
Assay type in all cases: biochemical
[1] = target: T1, PDR (Burkholderia cepacia, UniProt P33164); experiment: ABTS-HRP assay of H2O2 formed; details: 24 h; GDH-based NADH regeneration; O2 uncoupling, no ferredoxin
T1 construct: gene ophA1; codon-optimised gene in pET-28a(+), N-terminal 6xHis tag, E. coli JM109(DE3), Ni-sepharose purified; flavin and [2Fe-2S] domains
T1 sequence (P33164 2-322): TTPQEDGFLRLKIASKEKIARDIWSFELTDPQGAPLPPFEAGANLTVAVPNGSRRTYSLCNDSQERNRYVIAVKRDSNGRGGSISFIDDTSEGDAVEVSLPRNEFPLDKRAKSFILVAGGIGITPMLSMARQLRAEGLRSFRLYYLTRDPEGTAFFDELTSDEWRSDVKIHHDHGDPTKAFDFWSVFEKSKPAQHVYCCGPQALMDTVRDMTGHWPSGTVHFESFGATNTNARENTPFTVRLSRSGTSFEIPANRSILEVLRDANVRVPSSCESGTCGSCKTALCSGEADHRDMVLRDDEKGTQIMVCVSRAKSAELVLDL

[2] = target: T2, VanB (Pseudomonas aeruginosa, UniProt Q9HUQ8); experiment: ABTS-HRP assay of H2O2 formed; details: 24 h; GDH-based NADH regeneration; O2 uncoupling, no ferredoxin
T2 construct: codon-optimised gene in pET-28a(+), N-terminal 6xHis tag, E. coli JM109(DE3), Ni-sepharose purified; flavin and [2Fe-2S] domains
T2 sequence (Q9HUQ8 1-317): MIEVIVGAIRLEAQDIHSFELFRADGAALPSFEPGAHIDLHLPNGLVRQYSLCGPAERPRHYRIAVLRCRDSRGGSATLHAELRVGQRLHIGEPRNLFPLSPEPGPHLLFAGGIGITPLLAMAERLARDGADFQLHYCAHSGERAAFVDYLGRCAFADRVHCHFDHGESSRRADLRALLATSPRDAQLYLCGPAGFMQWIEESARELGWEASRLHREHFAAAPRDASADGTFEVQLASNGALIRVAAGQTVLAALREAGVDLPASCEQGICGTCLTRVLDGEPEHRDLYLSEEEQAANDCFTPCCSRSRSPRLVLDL

[3] = target: T3, CDO (CDO-WT; CDO-Oxy with CDO-Fd and CDO-Red) (Pseudomonas fluorescens, UniProt Q51743); experiment: GC-FID product quantification; details: 30 °C, 24 h, pH 7.2; NAD+ with GDH/glucose NADH regeneration, catalase, 1 mM DTT; O2
T3 construct: gene cumA1; codon-optimised genes in pET-28a(+), N-terminal 6xHis tag, E. coli JM109(DE3), Ni-sepharose purified; components mixed in vitro; with Cumene dioxygenase terminal oxygenase small (beta) subunit; Cumene dioxygenase ferredoxin; Cumene dioxygenase ferredoxin reductase
T3 sequence (Q51743 1-459): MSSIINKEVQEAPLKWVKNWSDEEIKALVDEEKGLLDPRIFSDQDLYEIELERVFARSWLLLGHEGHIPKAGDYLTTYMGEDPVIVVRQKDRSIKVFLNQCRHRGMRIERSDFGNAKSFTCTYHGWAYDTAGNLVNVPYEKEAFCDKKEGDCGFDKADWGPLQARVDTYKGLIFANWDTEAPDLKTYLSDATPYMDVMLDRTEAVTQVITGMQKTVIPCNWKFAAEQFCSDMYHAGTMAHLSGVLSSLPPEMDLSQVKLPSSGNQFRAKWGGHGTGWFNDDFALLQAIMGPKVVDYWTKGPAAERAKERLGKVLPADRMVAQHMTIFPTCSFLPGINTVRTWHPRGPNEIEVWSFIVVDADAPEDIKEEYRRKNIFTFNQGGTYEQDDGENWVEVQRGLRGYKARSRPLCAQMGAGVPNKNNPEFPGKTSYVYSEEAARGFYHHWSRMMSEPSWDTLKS
T3 sequence (Q51744 1-186 partner): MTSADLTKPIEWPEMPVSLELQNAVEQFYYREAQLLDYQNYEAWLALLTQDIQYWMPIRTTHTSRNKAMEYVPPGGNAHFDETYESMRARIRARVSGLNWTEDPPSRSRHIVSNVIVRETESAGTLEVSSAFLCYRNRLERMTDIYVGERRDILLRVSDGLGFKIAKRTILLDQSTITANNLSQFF

Compound	ABTS-HRP assay of H2O2 formed [1]	ABTS-HRP assay of H2O2 formed [2]	GC-FID product quantification [3]
NC(=O)C1=CN([C@@H]2O[C@H](COP(=O)(O)OP(=O)(O)OC[C@H]3O[C@@H](n4cnc5c(N)ncnc54)[C@H](O)[C@@H]3O)[C@@H](O)[C@H]2O)C=CC1 [NADH]	the H2O2 formation by PDR and VanB was evaluated analogously	the H2O2 formation by PDR and VanB was evaluated analogously	
C1=Cc2ccccc2C1 [compound 1, indene]			product formation in in vitro reactions with complete CDO-WT
